Entries after “also recorded” stand apart in the source; their conditions may differ.
Columns and labels:
[1] = tested on: IEC-18 cells; experiment: FITC-dextran permeability of IEC-18 cells on Transwell plates with and without mucin film; type: cell-based; settings: trypsin 50 μM
Method: (§1) To investigate whether mucin provides a barrier against trypsin transport, IEC-18 cells (on Transwell plates) were coated with and without a mucin film (400 μm, 10%, porcine stomach). FITC-dextrans (20 kDa, 5 mg/ml) with and without trypsin (50 μM) was added to the apical side and the rate of FITC accumulation on the basal side over 60 min was measured. To determine if trypsin cleaves the adherent junctions of the epithelium, it was measured by Western blot the levels of intra- and extracellular domains of E-cadherin. […] Thus, mucin protects against trypsin-mediated increases in intestinal epithelial permeability.

[2] = tested on: E-cadherin; experiment: Western blot of intra- and extracellular domains of E-cadherin in IEC-18 cells; type: cell-based; settings: trypsin 50 μM
Method: as §1

[3] = tested on: trypsin activity in the intestinal wall; experiment: In-situ zymography for trypsin activity in jejunal cryosections, rat splanchnic arterial occlusion (SAO) model; type: in vivo; settings: lumenal injection 30 min prior
Method: (§2) Male Wistar rats (250-300 g, Harlan Sprague Dawley Inc, Indianapolis, Ind.) were randomly assigned to each group (n=4 per group). Rats were kept on solid food restriction for 12 hours prior to surgery with water ad libitum. […] Sham groups were treated the same with the arteries separated but not ligated.
Control groups: Animals with saline injection into the lumen of the intestine, 3 ml/100 g Body Weight (BW), 30 min prior to SHAM or SAO surgery.
(§3) Perfluorocarbon groups: Perfluorodecalin (PFC) (Sigma-Aldrich, St Louis, Mo.) with oxygen, previously bubbled into the solution for 10 min, was injected into the lumen of the intestine 30 min prior SHAM or SAO surgery (SHAM+PFC+O2, SAO+PFC+O2). PFC without oxygen bubbled into the solution was injected 30 min prior SHAM or SAO surgery (SHAM+PFC, SAO+PFC).
ATP-MgCl2 groups: ATP-MgCl2 (Sigma-Aldrich), 25 mg/kg BW was injected in the lumen of the intestine 30 min prior to SHAM or SAO surgery (SHAM+ATP, SAO+ATP). […]
After 30 min SAO or sham surgery, the animals were euthanized (Beuthanasia®; 0.22 ml/kg BW, IV).
(§4) Tissue cryosections: After euthanasia, jejunal sections (˜1 cm in length) were excised without removal of lumenal contents and suspended in Tissue-Tek O.C.T. Compound (Sakura Finetek, Torrance, Calif.), snap frozen in isopentane/liquid nitrogen, and stored at −80° C. for analysis. Cryosections (5 μm thickness) along the longitudinal axis of the villi were used throughout all experiments. Cryosections were fixed in 10% formalin solution and processed in a non-blinded fashion.
In-situ tissue zymography: In-situ zymography for trypsin activity in cryosections was assessed by measurement of fluorescence resulting from the proteolytic cleavage of the substrate (1 mM, Na-benzoyl-L-arginine-7-amido-methylcoumarin hydrochloride; Sigma-Aldrich) as described elsewhere with propidium iodine counterstaining (Sigma-Aldrich) (9). Slides were observed under an inverted microscope (20× and 60× objectives).

[4] = tested on: mucin2; experiment: Mucin2 fluorescent staining of jejunal sections, rat SAO model; type: in vivo; settings: SAO 30 min, lumenal injection 30 min prior; for villi injury / villus structure: micrographs
Method: as §2, §3
(§5) ATP-MgCl2 groups: ATP-MgCl2 (Sigma-Aldrich), 25 mg/kg BW was injected in the lumen of the intestine 30 min prior to SHAM or SAO surgery (SHAM+ATP, SAO+ATP).
(§6) pH groups: Acidic saline (pH 5.5) injected in the lumen of the intestine 30 min prior SHAM surgery or HEPES buffer (20 mM) injected into the lumen of the intestine 30 min prior to SHAM or SAO surgery.
(§7) Free radicals groups: The hydroxyl radical scavenger, dimethylthiourea (DMTU, Sigma-Aldrich; 2.0 mg/g BW) was injected in the lumen of the intestine 30 min prior to SAO (SAO+DMTU).
as §4
(§8) Mucin and lectin staining: The simultaneous visualization of lectins and mucin was carried out using Lectin GS-II from Griffonia simplicifolia, Alexa Fluor® 594 Conjugate (EnzChek®, Invitrogen, Carlsbad, Calif.) and specific antibody for mucin2 with FITC secondary antibody 1:10000 (Santa Cruz Biotechnology) and nuclei counterstaining with DAPI. Sections were observed on an inverted microscope (20× objective) using the appropriate fluorescent filters.

[5] = tested on: lectin staining (carbohydrate portion of mucin); experiment: Lectin fluorescent staining (carbohydrate portion of mucin) of jejunal sections, rat SAO model; type: in vivo; settings: SAO 30 min; lumenal injection 30 min prior
Method: as §2, §3, §5, §6, §7, §4, §8

[6] = tested on: mucin2; experiment: Western blot for mucin2 of intestine homogenates, rat SAO model; type: in vivo; settings: SAO 30 min, lumenal injection 30 min prior
Method: as §2, §3, §5, §6, §7
(§9) Homogenates of intestine and lumenal contents: Jejunal segments were excised without removal of lumenal contents. For enzyme activity measurements, segments of intestine were homogenized with CelLytic™ (Sigma-Aldrich) without addition of protease inhibitors. For Western blot assays the intestine segments were homogenized as above in the presence of protease inhibitors (5 mM EDTA, 5 mM N-Ethylmaleimide, 25 mM iodoacetamide, 5 mM benzamidine, 300 mM acarbose, 5 mM 6-aminocaproic acid, 1 mM protease inhibitor cocktail, (Sigma-Aldrich). In separate experiments the small intestine of sham animals was excised, and the lumenal contents were flushed with 20 ml saline. Homogenates or lumenal contents were centrifuged (16,000 g for 15 min at 4° C.), the supernatant was collected and protein concentration was assessed with the bicinchoninic acid protein assay (Thermo Scientific).
(§10) Western blot: 20 μg of tissue homogenate were separated by SDS-PAGE. Membranes were incubated with primary antibodies as follows: mucin2, mucin13 and trypsin 1:1000 (Santa Cruz Biotechnology), pancreatic amylase 1:1000 (GeneTex, San Antonio, Tex.), intra- and extra-cellular domains of E-cadherin and TLR4 1:1000 (Abcam), intracellular domain of TLR4 1:1000 (Invitrogen). Secondary antibodies were diluted 1:20000 (Santa Cruz Biotechnology) and detected with Super Signal West Pico (Thermo Scientific). The exposed x-ray films were scanned and label intensity was measured using digital gel analysis (NIH ImageJ software).

[7] = tested on: mucin13; experiment: Western blot for mucin13 of intestine homogenates, rat SAO model; type: in vivo; settings: SAO 30 min, lumenal injection 30 min prior
Method: as §2, §3, §5, §6, §7, §9, §10

[8] = tested on: intestinal villi hypoxia; experiment: Hypoxia staining (pimonidazole, Hypoxyprobe-1) of intestinal villi, rat SAO model; type: in vivo; settings: SAO 30 min; lumenal injection 30 min prior
Method: as §2, §3, §5, §6, §7
Hypoxia staining: In separate experiments tissue hypoxia was detected with Hypoxyprobe™-1 Kit (Natural Pharmacia International, Burlington, Mass., USA). This method utilizes a small molecular marker, pimonidazole, which after intravenous injection forms adducts with thiol containing proteins only in oxygen-starved cells. After general anesthesia as described above, pimonidazole-HCl (6 mg/100 g) was injected intravenously 30 min before SAO or SHAM; at 30 min the animal was euthanized and the jejuna section removed, embedded in O.C.T and frozen in liquid nitrogen. Then cryosections were immunostained using a rabbit antibody that binds to protein adducts of pimonidazole in hypoxic cells.

[9] = tested on: ATP concentration in intestine homogenates; experiment: ATP assay in intestine homogenates, rat SAO model; type: in vivo; settings: SAO 30 min; lumenal injection 30 min prior
Method: as §2, §3, §5, §6, §7
ATP assay: ATP concentrations in intestine homogenates were measured using ATP fluorometirc assay kit (BioVision, Mountain View, Calif.) according to manufacturer's protocol. Briefly jejuna sections were homogenized with perchloric acid (BioVision), centrifuged at 15,000×G for 5 min at 4° C. Samples were mixed with ATP reaction mix, incubated for 30 min protected from light and the fluorescence was measured with 535/587 (Ex/Em).

[10] = listed as deoxygenated perfluorcarbon

Row | Compound | increase of epithelial permeability (FITC-dextran 20 kDa accumulation on basal side over 60 min) ([1]; without a mucin film) | E-cadherin cleavage ([2]; without a mucin film) | trypsin activity in the intestinal wall ([3]; SAO 30 min) | mucin2 staining levels [4] | villi injury / villus structure [4] | lectin staining levels [5] | mucin2 protein levels (relative density, Western blot) [6] | mucin13 protein levels / 17 kDa fragment (Western blot) [7] | hypoxia staining levels [8] | ATP concentration in intestinal tissue homogenates [9] | trypsin activity in the intestinal wall ([3]; SHAM surgery) | mucin2 protein levels (relative density, Western blot) [6, 10] | mucin13 protein levels / 17 kDa fragment (Western blot) [7, 10] | decrease of epithelial permeability (FITC-dextran 20 kDa accumulation on basal side over 60 min) ([1]; mucin film present (400 μm, 10%, porcine stomach), p<0.05) | E-cadherin cleavage ([2]; mucin film present)
1 | trypsin | 42% | cleaved | – | – | – | – | – | – | – | – | – | – | – | – | –
2 | CNC(=S)NC [DMTU, dimethylthiourea, reference compound] | – | – | undetectable levels of trypsin activity; also recorded: reduced trypsin activity in the intestinal wall | no significant change in mucin2 staining levels | undetectable villi injury | lower levels of lectin labeling as compared to SHAM; also recorded: decrease in lectin staining | reduced levels of mucin2; also recorded: reduction in mucin2 protein levels | no appearance of the lower molecular weight band at 17 kDA; also recorded: preservation of mucin13 protein levels | significantly low levels of hypoxia staining as compared to SAO | lower than SHAM and higher than SAO but it was not statistically significant | – | – | – | – | –
3 | FC1(F)C(F)(F)C(F)(F)C2(F)C(F)(F)C(F)(F)C(F)(F)C(F)(F)C2(F)C1(F)F (centres unmarked) [deoxygenated perfluorocarbon, Perfluorodecalin, reference compound] | – | – | High levels of trypsin activity | significantly lower | – | significantly lower | – | – | highest levels of hypoxia staining | significantly decreased | minimal trypsin activity | reduced in the SAO group (SAO+PFC) as compared to sham (SHAM+PFC) | presented the lower molecular weight fragments at 17 kDa | – | –
4 | O=S(=O)(O)CCN1CCN(CCO)CC1 [HEPES buffer, HEPES] | – | – | Low levels of trypsin activity | significantly lower as compared to SHAM, and they were also significantly higher than SAO | did not have signs of villi injury | lower as compared to SHAM | no significant decrease in mucin2 molecule | no degradation of mucin13 | significantly higher than the SHAM and SHAM-HEPES groups as well as the SAO group | significantly higher than SAO and similar to sham groups | minimal trypsin activity | – | – | – | –
5 | mucin | – | – | – | – | – | – | – | – | – | – | – | – | – | 30% | cleavage is reduced

Reference: patent US20150010644A1, “OXYGENATION OF THE MUCOSAL BARRIER BY ENTERAL ARTIFICIAL BLOOD TO PREVENT HYPOXIC BREAKDOWN OF THE MUCOSAL BARRIER” (THE REGENTS OF THE UNIVERSITY OF CALIFORNIA, priority 2011, published 2015)
